Measured values: patent publication US20070269494A1, “Compositions and methods for enhancing active agent absorption” (Nexus Pharma, Inc., priority 2006, published 2007)

System: Sprague-Dawley rats
Assay: Blood glucose depression by intracolonically administered bovine pancreatic insulin with absorption enhancer
Format: in vivo
Conditions: for Blood glucose as % of basal level: enhancer 0 mg/kg (insulin without enhancer), intracolonic, rats
Description: It is neutralized by 1 equivalent of sodium hydroxide. The pH is adjusted to 7-8 by 1N HCl and saturated sodium bicarbonate. Bovine pancreatic insulin (1.75 mL; Sigma, 10 mg/mL; in pH 8.2 HEPES buffer) is added and mixed by gentle swirling. The solution density is determined so that the required dose may be calculated.
The solution is then given to Sprague-Dawley rats (female, 250-300 g, n=3), intracolonically. Blood samples are taken from the tail vein and glucose levels measured using an OneTouch® UltraSmart® blood glucose meter.
As insulin reduces glucose levels in the blood, a depression in glucose levels indicates insulin reaching the blood efficaciously.

| Compound | 50% depression at 60 min. (blood glucose from basal level) (enhancer dose 200 mg/Kg, insulin 7 mg/Kg, procedure of Example 12) | Blood glucose as % of basal level (0 min) | Blood glucose as % of basal level (30 min) | Blood glucose as % of basal level (60 min) | Blood glucose as % of basal level (90 min) | Blood glucose as % of basal level (120 min) | Blood glucose as % of basal level (150 min) | Blood glucose as % of basal level (180 min) | Blood glucose as % of basal level (210 min) | Blood glucose as % of basal level (240 min) |
| --- | --- | --- | --- | --- | --- | --- | --- | --- | --- | --- |
| COC(=O)c1ccc(NC(=O)CCC(=O)O)cc1O [Example 20, methyl 4-(3-carboxy-propionylamino)] | negative (a 50% reduction in glucose levels was not reached in 60 minutes) |  |  |  |  |  |  |  |  |  |
| bovine pancreatic insulin: Bovine pancreatic insulin (Sigma, 10 mg/mL; in pH 8.2 HEPES buffer), the active agent co-administered |  | 100% | 94 ± 4% | 102 ± 7% | 105 ± 3% | 107 ± 7% | 94 ± 7% | 111 ± 7% | 113 ± 4% | 100 ± 7% |
